Experiments:
canarygrass = assay: Test C postemergence herbicide test; format: in vivo, Phalaris minor
How it was run: (§1)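 Plants were grown to the 1- to 4-leaf stage (2–18 cm) and then treated postemergence, or grown to the 2-leaf stage for the flooded paddy test. They were held in a greenhouse for 12 to 14 days and then scored by eye against controls, where 0 is no effect and 100 is complete control.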

downy bromegrass = assay: Test C postemergence herbicide test; format: in vivo, Bromus tectorum
How it was run: as §1

green foxtail [1] = assay: Test C postemergence herbicide test; format: in vivo, Setaria viridis
How it was run: as §1

wild oat = assay: Test C postemergence herbicide test; format: in vivo, Avenafatua
How it was run: as §1

large crabgrass = assay: Test E pre-/postemergence herbicide test; format: in vivo, Digitaria sanguinalis; details: Preemergence
How it was run: (§2)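 Ratings from 0 (no effect) to 100 (complete control) were assigned by visual comparison with untreated plants 12 to 14 days after application. Test chemicals, formulated with surfactant in a non-phytotoxic solvent blend, were applied to soil after planting or to foliage of 2–18 cm plants.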

green foxtail [2] = assay: Test E pre-/postemergence herbicide test; format: in vivo, Setaria viridis; details: Preemergence
How it was run: as §2

mustard = assay: Test E pre-/postemergence herbicide test; format: in vivo, Brassica nigra; details: Preemergence
How it was run: as §2

guineagrass = assay: Test E pre-/postemergence herbicide test; format: in vivo, Panicum maximum; details: Preemergence
How it was run: as §2

prickly sida = assay: Test E pre-/postemergence herbicide test; format: in vivo, Sida spinosa; details: Preemergence, scale 0 (no effect) to 100 (complete control)
How it was run: as §2

Italian ryegrass = assay: Test E pre-/postemergence herbicide test; format: in vivo, Lolium multiflorum; details: Preemergence
How it was run: as §2

common chickweed = assay: Test E pre-/postemergence herbicide test; format: in vivo, Stellaria media; details: Preemergence
How it was run: as §2

tropical spiderwort = assay: Test E pre-/postemergence herbicide test; format: in vivo, Commelina benghalensis; details: Preemergence
How it was run: as §2

itchgrass = assay: Test E pre-/postemergence herbicide test; format: in vivo, Rottboellia cochinchinensis; details: Preemergence
How it was run: as §2

quackgrass = assay: Test E pre-/postemergence herbicide test; format: in vivo, Elytrigia repens; details: Preemergence
How it was run: as §2

[3] = Postemergence, 250 g ai/ha, scale 0 to 100, 0 no effect, 100 complete control
[4] = Postemergence, 500 g ai/ha, scale 0 to 100, 0 no effect, 100 complete control
[5] = postemergence, 125 g ai/ha, scale 0 to 100
[6] = postemergence, 62 g ai/ha, scale 0 to 100
[7] = 250 g ai/ha, scale 0 (no effect) to 100 (complete control)
[8] = 500 g ai/ha, scale 0 (no effect) to 100 (complete control)

CCNC(=O)c1cccc(NC(=O)c2nn(C(C)(C)C)nc2C)c1 [Compound 392]
Plant response rating, Canarygrass (canarygrass; [3]): 50 | Plant response rating, Canarygrass (canarygrass; [4]): 65 | Plant response rating, Canarygrass (canarygrass; [5]): 45 | Plant response rating, Canarygrass (canarygrass; [6]): 40 | Plant response rating, Bromegrass, Downy (downy bromegrass; [3]): 55 | Plant response rating, Bromegrass, Downy (downy bromegrass; [4]): 60 | Plant response rating, Bromegrass, Downy (downy bromegrass; [5]): 55 | Plant response rating, Bromegrass, Downy (downy bromegrass; [6]): 35 | Plant response rating, Foxtail, Green (green foxtail [1]; [3]): 65 | Plant response rating, Foxtail, Green (green foxtail [1]; [4]): 70 | Plant response rating, Foxtail, Green (green foxtail [1]; [5]): 60 | Plant response rating, Foxtail, Green (green foxtail [1]; [6]): 60 | Plant response rating, Oat, Wild (wild oat; [4]): 60 | Plant response rating, Oat, Wild (wild oat; [5]): 40 | Plant response rating, Oat, Wild (wild oat; [6]): 30 | Plant response rating, Crabgrass, Large (large crabgrass; 62 g ai/ha, scale 0 to 100): 75 | Plant response rating, Crabgrass, Large (large crabgrass; 125 g ai/ha, scale 0 to 100): 95 | Plant response rating, Crabgrass, Large (large crabgrass; [7]): 95 | Plant response rating, Crabgrass, Large (large crabgrass; [8]): 95 | Plant response rating, Foxtail, Green (green foxtail [2]; 62 g ai/ha, scale 0 to 100): 10 | Plant response rating, Foxtail, Green (green foxtail [2]; [7]): 70 | Plant response rating, Foxtail, Green (green foxtail [2]; [8]): 95 | Plant response rating, Black Mustard (mustard; 62 g ai/ha, scale 0 to 100): 60 | Plant response rating, Black Mustard (mustard; [7]): 85 | Plant response rating, Black Mustard (mustard; [8]): 100 | Plant response rating, Guineagrass (guineagrass; 62 g ai/ha, scale 0 to 100): 75 | Plant response rating, Guineagrass (guineagrass; 125 g ai/ha, scale 0 to 100): 80 | Plant response rating, Guineagrass (guineagrass; [7]): 95 | Plant response rating, Guineagrass (guineagrass; [8]): 100 | Plant response rating, Prickly Sida (prickly sida; 250 g ai/ha): 75 | Plant response rating, Prickly Sida (prickly sida; 500 g ai/ha): 100 | Plant response rating, Ryegrass, Italian (Italian ryegrass; 62 g ai/ha, scale 0 to 100): 10 | Plant response rating, Ryegrass, Italian (Italian ryegrass; 125 g ai/ha, scale 0 to 100): 60 | Plant response rating, Ryegrass, Italian (Italian ryegrass; [7]): 70 | Plant response rating, Ryegrass, Italian (Italian ryegrass; [8]): 80 | Plant response rating, Chickweed (common chickweed; 62 g ai/ha, scale 0 to 100): 60 | Plant response rating, Chickweed (common chickweed; 125 g ai/ha, scale 0 to 100): 95 | Plant response rating, Chickweed (common chickweed; [7]): 95 | Plant response rating, Chickweed (common chickweed; [8]): 95 | Plant response rating, Spiderwort (tropical spiderwort; 125 g ai/ha, scale 0 to 100): 50 | Plant response rating, Spiderwort (tropical spiderwort; [7]): 95 | Plant response rating, Spiderwort (tropical spiderwort; [8]): 100 | Plant response rating, Itchgrass (itchgrass; 62 g ai/ha, scale 0 to 100): 50 | Plant response rating, Itchgrass (itchgrass; 125 g ai/ha, scale 0 to 100): 85 | Plant response rating, Itchgrass (itchgrass; [7]): 85 | Plant response rating, Itchgrass (itchgrass; [8]): 90 | Plant response rating, Quackgrass (quackgrass; 62 g ai/ha, scale 0 to 100): 10 | Plant response rating, Quackgrass (quackgrass; 125 g ai/ha, scale 0 to 100): 60 | Plant response rating, Quackgrass (quackgrass; [7]): 70 | Plant response rating, Quackgrass (quackgrass; [8]): 95

— patent US20060069132A1, “Azolecarboxamide herbicides” (priority 2004, published 2006)
